For data set [1], the system named is Mus musculus. Description: Antiinflammatory activity in LPS-induced BALB/c sepsis mouse model assessed as decrease in phosphorylated eIF4E level in spleen at 10 to 20 mg/kg, po preadministered with compound for 14 days followed by LPS stimulation and measured after 6 hrs by Western blot analysis. It is filed as functional, organism-based. Conditions: dose 10-20 mg/kg, time 342.0 hrs.

A short description of data set [2]: Half-life in Sprague-Dawley rat at 5 mg/kg, iv measured after 48 hrs. The conditions noted are these: in vivo. It is filed as ADME, organism-based.
Data set [3] has as its system Mus musculus. Nature of the data set: Antiinflammatory activity in LPS-induced BALB/c sepsis mouse model assessed as decrease in inflammatory cells in spleen at 10 to 20 mg/kg, po preadministered with compound for 14 days followed by LPS stimulation and measured after 6 hrs by H&E staining based analysis. It is filed as functional, organism-based. The conditions noted are these: dose 10-20 mg/kg, time 342.0 hrs.

For data set [4], the system named is Mus musculus. Description: Antiinflammatory activity in LPS-induced BALB/c sepsis mouse model assessed as increase in SOD level in serum at 20 mg/kg, po preadministered with compound for 14 days followed by LPS stimulation and measured after 6 hrs. The class given is functional, organism-based. The conditions noted are these: time 342.0 hrs.
The nature of data set [5]: Cmax in Sprague-Dawley rat at 20 mg/kg, po measured after 48 hrs. It is filed as ADME, organism-based. The conditions noted are these: in vivo.
The subject of data set [6] is Mus musculus. Description: Antiinflammatory activity in LPS-induced BALB/c sepsis mouse model assessed as increase in GSH level in serum at 20 mg/kg, po preadministered with compound for 14 days followed by LPS stimulation and measured after 6 hrs. The class given is functional, organism-based. Conditions: time 342.0 hrs.
The subject of data set [7] is Mus musculus. Description: Antiinflammatory activity in LPS-induced BALB/c sepsis mouse model assessed as decrease in serum BUN level at 10 to 20 mg/kg, po preadministered with compound for 14 days followed by LPS stimulation and measured after 6 hrs. The class given is functional, organism-based. Conditions: dose 10-20 mg/kg, time 342.0 hrs.
Data set [8] concerns Mus musculus. Description: Antiinflammatory activity in LPS-induced BALB/c sepsis mouse model assessed as reversal of LPS-induced kidney renal index at 20 mg/kg, po preadministered with compound for 14 days followed by LPS stimulation and measured after 6 hrs. The conditions noted are these: time 342.0 hrs. It is filed as functional, organism-based.
In a further data set the test system is MV4-11. Nature of the data set: Antiproliferative activity against human MV4-11 cells assessed as inhibition of cell proliferation at 20 uM incubated for 48 hrs by CCK8 assay relative to control. It is filed as functional. (In general: Formazan colour is commonly taken as a measure of viable cells.)
The subject of data set [9] is RAW264.7. Nature of the data set: Antiinflammatory activity in LPS-induced mouse RAW264.7 cells assessed as increase in Arg1 protein expression by Western blot analysis. Conditions: dose <= 20.0 µM. It is filed as functional, cell-based. A general note: In western blotting, separated proteins are transferred to a membrane and probed.
In data set [10] the test system is Mus musculus. Nature of the data set: Antiinflammatory activity in LPS-induced BALB/c sepsis mouse model assessed as decrease in serum creatinine level at 10 to 20 mg/kg, po preadministered with compound for 14 days followed by LPS stimulation and measured after 6 hrs. The class given is functional, organism-based. The conditions noted are these: dose 10-20 mg/kg, time 342.0 hrs.

Data set [11] deals with RAW264.7. Nature of the data set: Antiinflammatory activity against LPS-induced mouse RAW264.7 cells assessed as decrease in COX-2 expression at 10 to 20 uM by Western blot analysis. It is filed as functional, cell-based. The conditions noted are these: dose 10-20 µM.
The test system of data set [12] is Mus musculus. Nature of the data set: Antiinflammatory activity in LPS-induced BALB/c sepsis mouse model assessed as reversal of LPS-induced lung […] index at 20 mg/kg, po preadministered with compound for 14 days followed by LPS stimulation and measured after 6 hrs. The class given is functional, organism-based. Conditions: time 342.0 hrs.

This is an account of results in ChEMBL document CHEMBL5537205, “Discovery of D25, a Potent and Selective MNK Inhibitor for Sepsis-Associated Acute Spleen Injury” (J Med Chem, 2024).

The source made the active and inactive calls. No cut-off for these calls is given here.

Broadly, the half-life is the time in which the quantity being followed falls by half. As a reminder, the Cmax is the maximum level reached in the sampled fluid or tissue. A word on the inhibition: it is the drop in the measured response relative to a control, in per cent. As to `c1cc(-c2cc(C3CCNCC3)n[nH]2)c2cc[nH]c2n1`, the result in the data set on Mus musculus [1], with Mus musculus [3], with Mus musculus [4], in the data set on Mus musculus [6], in the data set with Mus musculus [7] and with Mus musculus [8] was Active. Moreover, the outcome with Mus musculus [10], in the data set on RAW264.7 [11] and in the data set on Mus musculus [12] was Active. In data set [2], this compound had a half-life of 5.52 h. In data set [5], this compound returned a Cmax of 26.2 ng/mL. Moreover, the inhibition at 20 µM in the data set on MV4-11 was determined as 98.5%. The Activity result with RAW264.7 [9] is “Dose-Dependent Effect”.
